In article PMC7753975 (Journal of medicinal chemistry, 2015):

The molecules below were run on NCI-60 human tumor cell lines (assay: NCI-60 five-dose assay, mean graph midpoint). Conditions: Homo sapiens, read-out: cytotoxicity (GI50, μM) MGM, mean graph midpoint of growth inhibition from 5 dose assay, ranging from 10^−8–10^−4 M.
Format: cell-based

| Structure (SMILES) | GI50 [µM] |
| --- | --- |
| O=C1c2ccccc2-c2c1c1ccc(C(F)(F)F)cc1c(=O)n2CCCn1ccnc1 [Compound 64, 3-(Trifluoromethyl)-5,6-dihydro-6-(3-(1H-imidazol-1-yl)-propyl)-5,11-dioxo-11H-indeno[1,2-c]isoquinoline] | 1.07 |
| O=C1c2ccccc2-c2c1c1ccc(F)cc1c(=O)n2CCCn1ccnc1 [Compound 60, 3-Fluoro-5,6-dihydro-6-(3-(1H-imidazol-1-yl)propyl)-5,11-dioxo-11H-indeno[1,2-c]isoquinoline] | 0.692 |
| O=C1c2ccccc2-c2c1c1cc(C(F)(F)F)ccc1c(=O)n2CCCn1ccnc1 [Compound 63, 2-(Trifluoromethyl)-5,6-dihydro-6-(3-(1H-imidazol-1-yl)-propyl)-5,11-dioxo-11H-indeno[1,2-c]isoquinoline] | ≥ 0.944 |
| O=C1c2ccccc2-c2c1c1ccc(I)cc1c(=O)n2CCCn1ccnc1 [Compound 62, 5,6-Dihydro-6-(3-(1H-imidazol-1-yl)propyl)-3-iodo-5,11-dioxo-11H-indeno[1,2-c]isoquinoline] | ≥ 0.944 |
| O=C1c2ccccc2-c2c1c1ccc(Cl)cc1c(=O)n2CCCN1CCOCC1 [Compound 69, 3-Chloro-5,6-dihydro-6-(3-morpholinopropyl)-5,11-dioxo-11H-indeno[1,2-c]isoquinoline] | 4.17 |
| O=C1c2ccccc2-c2c1c1ccc(F)cc1c(=O)n2CCCN1CCOCC1 [Compound 68, 3-Fluoro-5,6-dihydro-6-(3-morpholinopropyl)-5,11-dioxo-11H-indeno[1,2-c]isoquinoline] | 2.75 |
| CC[C@@]1(O)C(=O)OCc2c1cc1n(c2=O)Cc2cc3c(CN(C)C)c(O)ccc3nc2-1 [Compound 2, topotecan, reference compound] | 0.0405 ± 0.0187 |
| O=C1c2ccccc2-c2c1c1ccc(Cl)cc1c(=O)n2C[C@H](O)CO [Compound 50, (S)-3-Chloro-5,6-dihydro-6-(2,3-dihydroxypropyl)-5,11-dioxo-11H-indeno[1,2-c]isoquinoline] | 1.12 |

Same assay, conditions: human

| GI50 [µM] | Structure (SMILES) |
| --- | --- |
| 1.62 | O=C1c2ccccc2-c2c1c1ccc(I)cc1c(=O)n2CCCn1ccnc1 [Compound 62, 5,6-Dihydro-6-(3-(1H-imidazol-1-yl)propyl)-3-iodo-5,11-dioxo-11H-indeno[1,2-c]isoquinoline] |
